# Test results taken from US9061981B2, “Diphenyl substituted cyclohexane derivatives, useful as modulators of the estrogen receptors beta” (Acadia Pharmaceuticals Inc., priority 2011, dated 2015).
# Columns and labels:
# [1] = Non-specific binding assessment across tissue-free inserts; assay type: in vitro ADME; conditions: tissue-free insert, DPBS; for recovery at 120 min, 1 μM: tissue-free Millipore Millicell culture plate inserts; for Papp at 120 min, 1 μM: read-out: apparent permeability coefficient (Papp) through cell-free insert
# Procedure: Non-specific binding assessment (NSB) was conducted in a tissue-free plate containing Millipore Millicell culture plate inserts that were the same ones that were used in the permeation study across the culture tissues. Each of the tested compounds was dosed at 1 μM with DPBS buffer. Sampling time for the receiver chambers was 120 minutes after dosing, while the donor sides were sampled at 0 and 120 minutes after dosing. The NSB assessments consisted of the permeation rates across tissue-free inserts and the percent recovery by calculating the mass balance of the test campounds at the end of the experiment. The recovery assessment was used to assess the non-specific binding property of the tested compounds to the assay apparatus.
# [2] = biological target: ERβ (Homo sapiens, UniProt Q92731); experiment: Competitive 3H-estradiol binding assay, ERβ; design: expressed in transfected cells; host or cells: HEK293 cells, transient transfection
# ERβ, sequence (Q92731 whole entry, species assumed): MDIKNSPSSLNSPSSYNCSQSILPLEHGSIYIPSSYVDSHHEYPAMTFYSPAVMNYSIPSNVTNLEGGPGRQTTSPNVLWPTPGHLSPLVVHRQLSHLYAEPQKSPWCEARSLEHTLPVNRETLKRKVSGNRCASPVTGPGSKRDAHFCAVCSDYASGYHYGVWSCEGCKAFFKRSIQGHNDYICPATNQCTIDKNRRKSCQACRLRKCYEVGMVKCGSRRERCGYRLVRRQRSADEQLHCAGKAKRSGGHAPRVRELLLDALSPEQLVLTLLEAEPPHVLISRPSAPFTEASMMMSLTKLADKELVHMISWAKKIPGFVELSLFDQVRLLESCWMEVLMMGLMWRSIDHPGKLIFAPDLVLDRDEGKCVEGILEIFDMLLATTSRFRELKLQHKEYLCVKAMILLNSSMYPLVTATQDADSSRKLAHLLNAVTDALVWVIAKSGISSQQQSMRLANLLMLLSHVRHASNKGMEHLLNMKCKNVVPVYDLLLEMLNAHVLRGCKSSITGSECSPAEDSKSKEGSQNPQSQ
# Procedure: (§1) Cells were then harvested by scraping in ice-cold PBS and subsequently lysed using a cold buffer containing 10 mM Tris pH 7.4, 1 mM EDTA, 1 mM DTT before being subjected to polytron twice for 10 seconds. Cytosolic extracts were isolated by centrifugation at 15000 g for 30 minutes at 4° C. Competitive binding of the test compounds or the estradiol control was performed on 20 μL extract by overnight incubation at 4° C. in a total volume of 100 μL containing 1 nM ^3H-estradiol (Perkin Elmer, Boston, Mass.). The bound fraction was separated from the unbound one by the addition of 100 μL of Dextran coated charcoal, incubated for 10 minutes and subsequent centrifugation at 1000 rpm for 10 minutes. Samples (100 μL per sample) were then analyzed by liquid scintillation. Data was then analyzed using the curve fitting software GraphPad Prism.
# [3] = biological target: T1, ERα (Homo sapiens, UniProt P03372); experiment: R-SAT functional assay, ERα; assay type: cell-based; design: expressed in transfected cells; host or cells: NIH-3T3 fibroblasts, transient transfection; conditions: NIH-3T3 cells; for EC50: na = not active, read-out: R-SAT Erα pEC50 (converted)
# T1 sequence (P03372 1-595): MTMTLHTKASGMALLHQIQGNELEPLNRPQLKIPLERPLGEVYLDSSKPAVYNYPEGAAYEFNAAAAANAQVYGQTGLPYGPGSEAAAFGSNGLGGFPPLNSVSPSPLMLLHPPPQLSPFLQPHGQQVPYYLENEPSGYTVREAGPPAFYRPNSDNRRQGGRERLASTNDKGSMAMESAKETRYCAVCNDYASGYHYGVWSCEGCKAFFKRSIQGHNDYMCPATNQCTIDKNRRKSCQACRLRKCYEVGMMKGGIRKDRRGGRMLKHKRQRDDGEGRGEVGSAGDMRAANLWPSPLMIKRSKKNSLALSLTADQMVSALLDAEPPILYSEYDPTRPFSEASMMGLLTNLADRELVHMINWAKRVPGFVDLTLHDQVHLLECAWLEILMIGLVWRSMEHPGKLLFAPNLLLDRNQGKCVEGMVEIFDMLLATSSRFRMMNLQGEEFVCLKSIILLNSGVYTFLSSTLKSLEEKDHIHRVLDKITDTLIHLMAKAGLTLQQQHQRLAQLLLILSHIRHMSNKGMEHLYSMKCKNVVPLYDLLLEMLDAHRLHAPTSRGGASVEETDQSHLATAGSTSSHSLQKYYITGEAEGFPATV
# Source text: R-SAT® (Receptor Selection and Amplification Technology) is a cell-based functional assay that allows one to monitor receptor-dependent proliferative responses and has been described elsewhere. […] This process is achieved by partial cellular transformation via loss of contact inhibition and growth factor dependency. Monitoring is achieved by transfecting the cells with a β-galactosidase reporter gene vector whose expression is under a constitutively active promoter. Briefly, NIH-3T3 fibroblasts were plated overnight in 96-wells plates in DMEM 10% calf serum (Hyclone) and grown to 60-70% confluency prior to transfection. Transient transfections were performed using Polyfect (Qiagen) according to manufacturer's instructions. Typically a transfection mix would consist of the receptor and the β-galactosidase expression vectors. Sixteen hours post-transfection, cells were incubated with different doses of ligand in DMEM containing 30% Ultraculture (Hyclone) and 0.4% calf serum (Hyclone) to generate a dose response curve. […] Plates were read using a microplate reader at 420 nm. Data from R-SAT® assays were fit to the equation: r=A+B(x/(x+c)), where A=minimum response, B=maximum response minus minimum response, c=EC50, r=response, and x=concentration of ligand. Curves were generated using the curve fitting softwares Excel Fit and GraphPad Prism (San Diego, Calif.). Luciferase Reporter Gene Assay
# [4] = biological target: T1, ERα; experiment: Competitive 3H-estradiol binding assay, ERα; conditions: 1 nM 3H-estradiol, HEK293T cytosolic extract; read-out: Binding ERα pKi (converted)
# Procedure: as §1, with “HEK293T cells were transiently transfected for 48 hours with expression vectors encoding ERα or ERβ, before being serum starved for 4-6 hours. Cells” for “Cells”
Compound,"recovery at 120 min, 1 μM [1] [%]","Papp at 120 min, 1 μM [1] [×10⁻⁶ cm/s]",Ki [2] [nM],R-SAT Erα % Eff [3] [%],EC50 [3] [nM],Ki [4] [nM]
Oc1ccc(C2(c3ccccc3Cl)CCCCC2)cc1F [Compound 957],18,0.881,15.8,58,631,200
Oc1ccc(C2(c3cccc(F)c3Cl)CCCCC2)cc1 [Compound 623],22,1.17,6.31,45,398,794
"Oc1ccc(C2(c3ccccc3F)CCC(F)(F)CC2)cc1 [Compound 8, 4-(4,4-Difluoro-1-(2-fluorophenyl)cyclohexyl)phenol]",57,19.8,6.31,62,1000,79.4
